The values that follow are results of earlier work, collected in patent US6455086B1, “Microorganism reduction methods and compositions for food cleaning” (The Procter & Gamble Company, priority 1999, dated 2002).

Counter-ions that a name gives are not always drawn.

Data set [1] relates to typical Gram negative and positive bacteria, fungi and yeasts. The note with it: used at a level from about 0.001% to about 0.5% by weight of the usage composition.

Consider `Cn1sc2c(c1=O)CCC2` [Promexal, 2-methyl-4,5-trimethylene4-isothiazolin-3-one], for which, in data set [1], the “effectiveness against typical Gram negative and positive bacteria, fungi and yeasts” value is “effective”.

On to `O=c1[nH]sc2ccccc12` [Proxel, 1,2-benzisothiazolin-3-one], for which the “effectiveness against typical Gram negative and positive bacteria, fungi and yeasts” value in data set [1] is “effective”.

Take `[H]/N=C(\N/C(=N/[H])NCCCCCCNC(=N)NC(=N)Nc1ccc(Cl)cc1)Nc1ccc(Cl)cc1` [chlorhexidine diacetate salt, 1,1′-hexamethylene bis(5-(p-chlorophenyl)biguanide)]: the solubility in water result is on record as “about 1.8%”.

On to `[H]/N=C(\N/C(=N/[H])NCCCCCCNC(=N)NC(=N)Nc1ccc(Cl)cc1)Nc1ccc(Cl)cc1` [chlorhexidine digluconate salt, 1,1′-hexamethylene bis(5-(p-chlorophenyl)biguanide)], for which the solubility in water entry is given as “about 70%”.
